# Experimental data: the METLIN SMRT retention time set (Domingo-Almenara et al. 2019)
# Test: gradient 5% acetonitrile 3 min, to 50% in 2 min, to 85% in 15 min, held 3 min, 100 µL/min
# Settings: column: Zorbax Extend-C18 2.1 x 50 mm; eluents: water / acetonitrile, 0.1% formic acid
# Outline: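 Retention times of pure standards were taken from adduct peaks that were selected by computer and manually inspected. Over 3 months, mixtures of ~100 molecules were run by HPLC–quadrupole time-of-flight mass spectrometry in positive and negative ionization mode. The Zorbax Extend-C18 column (2.1 × 50 mm, 1.8 μm) ran at 100 μL/min in water and acetonitrile, each containing 0.1% formic acid, with 40 μL dead volume and 900 μL dwell volume.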
row,SMILES,RP-LC retention time [s]
1,Cc1ccc(NC(=O)N2CCC3(C2)C(=O)Nc2ccccc23)cc1 (stereo not drawn),745
2,CSc1ccc(Cc2nnc(NC(=O)c3nn(C)cc3C)o2)cc1,694
3,COc1ccc(NC(=O)CSc2nnc3c4cc(-c5ccc(C)c(C)c5)nn4ccn23)cc1Cl,997
4,Cc1ccccc1-c1noc(Cn2ccnc2C)n1,622
5,C=CCNC(=O)c1cn(-c2cc(-c3nc(C)no3)ccn2)cn1,711
6,Cc1ccc2cc(CCC(=O)NCCN3CCN(C)CC3)c(=O)[nH]c2c1,559
7,COc1cccc(N2C=C(C(=O)N3CCCC3)S(=O)(=O)c3ccccc32)c1,770
8,COc1ccc(CNC(=O)NCCc2nc3cccnc3n2Cc2ccccc2)cc1,710
9,O=C(CSc1nnc2c3cc(-c4ccccc4)nn3ccn12)NCc1ccccc1,781
10,Cc1cc(NS(=O)(=O)c2cc3n(c2)CCCN(C)C3=O)ccc1F,696
11,Cc1nnc(C2CCCCCN2C(=O)c2occc2C)o1 (stereo not drawn),718
12,CCOc1ccc(Cc2nc(-c3ccc4oc(CC)nc4c3)no2)cc1,1130
13,Cn1ncn2cc(S(=O)(=O)NCc3ccc(Cl)cc3)cc2c1=O,817
14,Cc1cc(OCC(=O)Nc2ccc(C#N)cc2)nc(-c2ccc(F)cc2)n1,976
15,COc1ccc2[nH]cc(CCNC(=O)c3ccccc3NC(=O)C3=C(C)OCCS3)c2c1,938
16,CCOc1nc2ccccc2nc1N1CCCC(C(=O)Nc2ccc(F)cc2)C1 (stereo not drawn),1190
17,COc1ccc(OC)c(NC(=O)N2CCN(c3ccc(=O)n(-c4ccc(C)c(C)c4)n3)CC2)c1,880
18,COc1ccc2cc3c(=O)n(Cc4ccccc4)nc-3oc2c1,833
19,Fc1ccccc1CN1CCCN(c2ncccc2-c2nc(C3CC3)no2)CC1,675
20,Cc1nn(C)c(C)c1S(=O)(=O)N1CCN(C(=O)CCc2c[nH]c3ccccc23)CC1,708
21,COc1ccc(CCC(=O)N2CCc3cc(-c4csc(C)n4)ccc32)cc1,1060
22,CCCc1ccc(S(=O)(=O)N2CCC(C(=O)NCc3csc(-c4cccs4)n3)CC2)cc1,1050

row,SMILES,RP-LC retention time [s]
1,CCC(C(=O)NCCc1c[nH]c2ccc(OC)cc12)n1nc(C)c2nn(-c3ccccc3)c(C)c2c1=O (stereo not drawn),895
2,Cc1ccc2c(=O)c3c([nH]c2c1C)CCN(CC(=O)Nc1ccccc1F)C3,612
3,Cc1ccc(C(=O)N2CCC(CCOCC3CC3)CC2)cn1,660
4,Cc1ccccc1NC(=O)N1CCC2(CC1)NC(=O)c1cc(F)ccc1N2C,1070
5,Cc1cc(=O)n(CC(=O)Nc2ccc3c(c2)OCO3)c(-c2ccc(Cl)cc2)n1,1040
6,CCOc1ccc(CNC(=O)C2CCN(c3cncnc3N3CCOCC3)CC2)cc1,635
7,CCOC(=O)CC1(NC(=O)N2CCCn3nc(-c4cccnc4)cc3C2)CCCCC1,643
8,COc1ccc(C2C(=O)N(C3CCCCC3)CC(=O)N2Cc2cccs2)cc1 (stereo not drawn),952
9,CCn1cc(S(=O)(=O)N2CC(n3cc(C(=O)N4CCOCC4)nn3)C2)cn1,632
10,Cc1ccc(-c2noc(C3CCCN3S(=O)(=O)c3c(C)c(C)cc(C)c3C)n2)cc1 (stereo not drawn),788
11,Cc1oc(-c2[nH]ncc2C(=O)N(C)C)cc1S(=O)(=O)NCCC(C)C,692
12,Cc1ccc(C)c(N2CCN(Cc3nc(-c4ccc(N5CCCC(C)C5)nc4)no3)CC2)c1 (stereo not drawn),1280
13,CCOc1ccc(N2C(=O)C3N=NN(Cc4nc(-c5ccc(OC)c(OC)c5)no4)C3C2=O)cc1 (stereo not drawn),906
14,O=C(NCc1ccccc1)C1CCN(c2ccc(SCc3ccccc3)nn2)CC1,761
15,COc1ccccc1CNS(=O)(=O)c1cccc(-c2nc(-c3ccccc3)no2)c1,1150
16,O=c1cc(-c2ccncc2)nc(N2CCCC2)n1Cc1ccccc1,1200
17,COC(=O)c1cccc(NC(=O)N2CCN(Cc3nc4ccc(Cl)cc4o3)CC2)c1,756
18,Cc1cc(S(=O)(=O)[C@H]2CS(=O)(=O)C[C@@H]2N2CCN(c3ccc(F)cc3)CC2)ccc1F,662
19,Fc1ccccc1-c1ccc(CNCc2ccccn2)o1,655
20,CSc1ccc(-c2nc3ncccn3c2Nc2cccc(C)c2)cc1,843
21,Cc1ccc(Cl)cc1NC(=O)CSc1nc(N2CCCCC2)nc2ccccc12,849
22,COc1cncc(C(=O)Nc2cc(F)cc(F)c2)c1,797

row,SMILES,RP-LC retention time [s]
1,Cc1ccnc(C(=O)Nc2ccc(Nc3cc(N4CCOCC4)nc(C)n3)cc2)n1,566
2,Cc1nnc(-c2nnc(NC(C)C)c3ccccc23)o1,602
3,O=C(c1ccc(Br)o1)N1CCN(c2ccc(-c3noc(C4CC4)n3)cc2)CC1,1020
4,CCCN1CCN(c2ncc(C(=O)Nc3ccc(OCC)cc3)c(N)n2)CC1,617
5,Cc1cc(N2CCN(C)CC2)nc2ccc(NC(=O)Nc3ccc(F)cc3F)cc12,594
6,CCCCNC(=O)C1CCCN(C(=O)Nc2ccc(S(=O)(=O)N(CC)CC)s2)C1 (stereo not drawn),849
7,CCCc1cc(N2CCN(C(=O)c3cc(OC)cc(OC)c3)CC2)nc2nncn12,576
8,CN(C)C(=O)c1ccc2c(c1)N(CC(=O)NCCC1=CCCCC1)C(=O)C1CCCCN21 (stereo not drawn),830
9,COc1ccc(Nc2nc(-c3nnn(-c4cc(F)ccc4F)c3C)ns2)cc1,949
10,COc1cc2c(cc1OC)[N+]([O-])=C(c1ccccc1)C2=O,1030
11,Cc1cc2c(c(=O)n(-c3ccc(F)cc3)c(=O)n2CC(=O)Nc2cccc(F)c2)n1C,840
12,CCOc1ccc(NC(=O)NCCc2cn(C)c3ncccc23)cc1,676
13,Cn1cc(-c2cc3n(n2)CCCN3C(=O)CCC(=O)NC2CCCCCC2)c2ccccc21,869
14,Cc1cc(C(=O)NC(C)c2ccccc2)n(-c2ccccc2)n1 (stereo not drawn),850
15,CCCn1cc(CCNS(=O)(=O)c2ccc(OC)c(Cl)c2)c2cccnc21,865
16,CCCCN1CCN(S(=O)(=O)c2cc(-c3nnc(C4CC4)o3)co2)CC1,633
17,O=C(NCc1nc(-c2ccc(-c3csc(C4CC4)n3)cc2)no1)c1ccccc1,1030
18,CN1C(=O)c2cc(C(=O)NC3CCCC3)nn2CC1(C)C(=O)NCc1ccc(F)cc1 (stereo not drawn),719
19,COc1cc(Br)c(CC2C(=O)Nc3ccccc32)cc1OC (stereo not drawn),842
20,Cc1ccc(CNC(=O)c2cnc(-c3ccccc3)nc2-c2ccncc2)cc1C,916
21,COc1ccc(CNC(=O)c2nnc(-c3ccc(S(=O)(=O)N(C)C)cc3)o2)cc1OC,865
22,COC[C@@H]1CN(C(=O)c2ccc(C#N)cc2)C[C@H]1C(N)=O,571

row,SMILES,RP-LC retention time [s]
1,O=C(NCCC1=CCCCC1)C1CCCN(c2nccnc2Sc2ccccc2)C1 (stereo not drawn),1170
2,CC(C)(C)C(=O)N1CCC2(CC1)CN(Cc1ccccc1)CC2CO (stereo not drawn),607
3,O=C(NCCc1noc(C2CC2)n1)C1CCCC1,699
4,COc1cccc(S(=O)(=O)N2CCN(c3cc(C)nc(NC4CCCCC4)n3)CC2)c1,795
5,O=C(CN1c2ccc(F)cc2-c2ccccc2S1(=O)=O)Nc1ccc(F)cc1,948
6,Fc1ccc(Nc2nc(N3CCOCC3)nc3[nH]ncc23)cc1,601
7,CCOC(=O)c1c(C)oc2ncnc(N3CCc4cc(OC)c(OC)cc4C3C)c12 (stereo not drawn),981
8,COC(=O)/C(=C1/OC(=O)C(c2ccccc2)=C1O)c1ccccc1,1130
9,Cc1ccc(C)c(-c2cc3c(=O)n(Cc4nc(-c5ccc(Cl)cc5)no4)ncn3n2)c1,1220
10,Cc1cc(C)c(NC(=O)Cn2c(=O)cc(-c3nc(C)no3)c3ccccc32)c(C)c1,895
11,O=C1COc2cc(S(=O)(=O)N3CCCC3C(=O)NC3CCCCCCC3)c(Cl)cc2N1 (stereo not drawn),864
12,CCC(C)CC(=O)N1CCCN(C2=NS(=O)(=O)C(c3ccc(C(C)C)cc3)=C2C)CC1 (stereo not drawn),1000
13,O=C(Nc1ccccc1Cl)C(=O)c1c[nH]c2ccccc12,1130
14,Cc1cc(C(=O)NC2CCCC2)c2cc(F)ccc2n1,710
15,Cn1cc(CCN2CCC(C(=O)NCc3ccccc3)CC2)c2cccnc21,588
16,Cc1ccc(CNC(=O)Cn2nc(C(=O)N3CCCC3)c3ccccc32)o1,755
17,CCCOCCOC(=O)C1=C(C)NC2=C(C(=O)CC(C)(C)C2)C1c1cccc(OC)c1OC (stereo not drawn),875
18,CC(=O)Nc1ccc(NC(=O)Cn2ccc3ccc(-c4nnc(C)o4)cc32)cc1,652
19,O=C(c1ccccc1C(F)(F)F)N1CCN(S(=O)(=O)C2CC2)CC1,725
20,CCOC(=O)c1ccc(NC(=O)NCC(c2cccnc2)c2cn(C)c3ccccc23)cc1 (stereo not drawn),824
21,CCCN1C(=O)COc2ccc(-c3noc(CNC(=O)c4ccc(C)cc4)n3)cc21,930
22,CCCCn1c(=O)c2ccccc2n(Cc2nc(-c3ccccc3OCC)no2)c1=O,1130
